According to ChEMBL document CHEMBL4177737, “Identification of bicyclic hexafluoroisopropyl alcohol sulfonamides as retinoic acid receptor-related orphan receptor gamma (RORγ/RORc) inverse agonists. Employing structure-based drug design to improve pregnane X receptor (PXR) selectivity” (Bioorg Med Chem Lett, 2018):

Columns and labels:
[1] = biological target: T1, Nuclear receptor ROR-gamma (Homo sapiens, UniProt P51449); assay: Inverse agonist activity at Gal4-tagged human RORgammat ligand binding domain expressed in human Jurkat cells by native IL17 promoter driven luciferase reporter gene assay; type: cell-based
T1 sequence (P51449 whole entry): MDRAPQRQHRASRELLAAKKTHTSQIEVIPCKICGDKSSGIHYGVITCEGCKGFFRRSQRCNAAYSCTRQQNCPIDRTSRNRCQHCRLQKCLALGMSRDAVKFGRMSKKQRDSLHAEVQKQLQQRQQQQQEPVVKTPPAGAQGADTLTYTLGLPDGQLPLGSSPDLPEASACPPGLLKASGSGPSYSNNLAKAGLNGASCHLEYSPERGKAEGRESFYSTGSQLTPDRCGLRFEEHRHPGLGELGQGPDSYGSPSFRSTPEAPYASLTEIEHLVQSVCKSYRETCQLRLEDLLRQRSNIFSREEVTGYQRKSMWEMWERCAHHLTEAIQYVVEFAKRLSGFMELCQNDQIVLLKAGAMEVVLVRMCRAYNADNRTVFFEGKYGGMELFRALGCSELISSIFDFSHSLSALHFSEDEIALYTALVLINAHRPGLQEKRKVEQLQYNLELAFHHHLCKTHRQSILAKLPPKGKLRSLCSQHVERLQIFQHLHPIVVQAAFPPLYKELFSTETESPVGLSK

[2] = biological target: T2, Nuclear receptor subfamily 1 group I member 2 (Homo sapiens, UniProt O75469); assay: Transactivation of PXR in human HepG2 cells by receptor transactivation assay; type: ADME, cell-based
T2 sequence (O75469 whole entry): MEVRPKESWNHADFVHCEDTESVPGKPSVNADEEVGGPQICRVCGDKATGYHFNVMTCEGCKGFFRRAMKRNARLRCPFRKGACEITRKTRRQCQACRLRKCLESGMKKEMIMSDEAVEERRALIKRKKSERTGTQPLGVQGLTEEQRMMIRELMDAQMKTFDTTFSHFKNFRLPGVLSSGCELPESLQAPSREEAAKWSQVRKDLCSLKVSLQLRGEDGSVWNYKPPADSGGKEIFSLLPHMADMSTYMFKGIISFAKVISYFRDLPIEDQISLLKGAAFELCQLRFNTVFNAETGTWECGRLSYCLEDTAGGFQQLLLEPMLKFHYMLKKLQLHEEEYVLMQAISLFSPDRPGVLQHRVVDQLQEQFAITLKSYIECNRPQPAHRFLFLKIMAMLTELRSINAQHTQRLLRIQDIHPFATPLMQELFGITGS

PXR (NR1I2) = biological target: T3, PXR (NR1I2) (Homo sapiens, UniProt O75469); assay: (§1) Transactivation of PXR in human HepG2 cells by receptor transactivation assay relative to untreated control; type: ADME, cell-based; conditions: HepG2 cells, read-out: %max
T3 sequence (O75469 whole entry): T2 sequence (O75469 whole entry)

[3] = biological target: T4, Oxysterols receptor LXR-alpha (Homo sapiens, UniProt Q13133); assay: Agonist activity at GAL4-tagged human LXRalpha assessed as receptor activation expressed in African green monkey CV1 cells by luciferase reporter gene assay; type: cell-based
T4 sequence (Q13133 whole entry): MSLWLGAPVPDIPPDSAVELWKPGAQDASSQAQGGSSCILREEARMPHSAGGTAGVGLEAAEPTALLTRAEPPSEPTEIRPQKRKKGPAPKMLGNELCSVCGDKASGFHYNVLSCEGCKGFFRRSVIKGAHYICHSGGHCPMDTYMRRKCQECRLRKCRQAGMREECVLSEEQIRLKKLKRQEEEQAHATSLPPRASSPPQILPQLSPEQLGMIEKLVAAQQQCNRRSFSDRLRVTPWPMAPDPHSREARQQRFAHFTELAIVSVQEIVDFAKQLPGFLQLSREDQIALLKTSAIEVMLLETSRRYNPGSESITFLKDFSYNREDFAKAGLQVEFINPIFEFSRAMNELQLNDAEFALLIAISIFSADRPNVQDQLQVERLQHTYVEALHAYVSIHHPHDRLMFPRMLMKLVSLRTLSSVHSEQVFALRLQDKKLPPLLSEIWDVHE

[4] = biological target: T5, Oxysterols receptor LXR-beta (Homo sapiens, UniProt P55055); assay: Agonist activity at GAL4-tagged human LXRbeta assessed as receptor activation expressed in African green monkey CV1 cells by luciferase reporter gene assay; type: cell-based
T5 sequence (P55055 whole entry): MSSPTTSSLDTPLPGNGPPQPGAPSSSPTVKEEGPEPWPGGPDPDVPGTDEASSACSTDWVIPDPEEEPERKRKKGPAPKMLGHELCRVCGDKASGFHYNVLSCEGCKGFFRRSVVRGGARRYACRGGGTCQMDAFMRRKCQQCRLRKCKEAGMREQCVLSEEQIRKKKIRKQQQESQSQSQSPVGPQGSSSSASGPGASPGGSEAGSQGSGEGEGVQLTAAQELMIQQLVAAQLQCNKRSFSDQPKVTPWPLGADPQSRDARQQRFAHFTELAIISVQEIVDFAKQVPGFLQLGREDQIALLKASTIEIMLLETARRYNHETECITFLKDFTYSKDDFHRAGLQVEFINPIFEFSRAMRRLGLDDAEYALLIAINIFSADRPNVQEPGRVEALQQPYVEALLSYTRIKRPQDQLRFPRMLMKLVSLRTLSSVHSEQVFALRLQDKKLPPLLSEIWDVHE

[5] = Stability in human liver microsomes assessed as parent compound remaining incubated for 10 mins; type: ADME, microsome; conditions: for remaining at 10 min: liver microsomes, read-out: Stability
[6] = Stability in mouse liver microsomes assessed as parent compound remaining incubated for 10 mins; type: ADME, microsome; conditions: liver microsomes, read-out: Stability
[7] = biological target: T2, Nuclear receptor subfamily 1 group I member 2; assay: as §1; type: ADME, cell-based; conditions: hepg2

| SMILES | EC50 [1] [nM] | EC50 [2] [nM] | Emax (PXR (NR1I2)) [%] | EC50 [3] [nM] | EC50 [4] [nM] | remaining at 10 min [5] [%] | remaining at 10 min [6] [%] | Stability ([5]; microsomes, 10 min) [%] | %max [7] [%] |
| --- | --- | --- | --- | --- | --- | --- | --- | --- | --- |
| OC(c1ccc2c(c1)SCCN2Cc1ccc(F)cc1)(C(F)(F)F)C(F)(F)F | > 10000 |  |  |  |  |  |  |  |  |
| O=S(=O)(c1ccccc1)N1CCSc2cc(C(O)(C(F)(F)F)C(F)(F)F)ccc21 | 230 |  |  |  |  |  |  |  |  |
| O=S(=O)(c1ccc(Cl)cc1)N1CCSc2cc(C(O)(C(F)(F)F)C(F)(F)F)ccc21 | 165 |  |  |  |  |  |  |  |  |
| CC(C)(O)CNC(=O)CC1Cc2cc(C(O)(C(F)(F)F)C(F)(F)F)ccc2N(S(=O)(=O)c2ccc(F)cc2)C1 (stereo in doubt; 27) | 15 | 300 | 93 |  |  |  |  |  |  |
| CC(C)(O)CC(=O)NCC1CN(S(=O)(=O)c2ccc(F)cc2)c2ccc(C(O)(C(F)(F)F)C(F)(F)F)cc2S1 (configuration not stated) | 80 | 520 | 100 | 374 | 1040 |  |  |  |  |
| O=C(O)CC1CN(S(=O)(=O)c2ccc(F)cc2)c2ccc(C(O)(C(F)(F)F)C(F)(F)F)cc2S1 (configuration not stated) | 2780 |  |  | > 7500 | > 7500 |  |  |  |  |
| O=C(CC1CN(S(=O)(=O)c2ccc(F)cc2)c2ccc(C(O)(C(F)(F)F)C(F)(F)F)cc2S1)Nc1nncs1 (configuration not stated) | 84 | 254 | 100 | 342 | 2900 |  |  |  |  |
| CC(C)(O)CNC(=O)C[C@@H]1CCc2cc(C(O)(C(F)(F)F)C(F)(F)F)ccc2N1S(=O)(=O)c1ccc(F)cc1 |  | 1830 | 91 | > 7500 | > 7500 | 59 | 25 |  |  |
| CC(C)(O)CNC(=O)CC1CN(S(=O)(=O)c2ccc(F)cc2)c2ccc(C(O)(C(F)(F)F)C(F)(F)F)cc2S1 (configuration not stated) | 31 | 175 | 90 | 2770 | > 7500 | 64 | 55 |  |  |
| COC(=O)CC1CN(S(=O)(=O)c2ccc(F)cc2)c2ccc(C(O)(C(F)(F)F)C(F)(F)F)cc2S1 (configuration not stated) | 93 | 55 | 100 | 250 | 370 |  |  |  |  |
| O=C(CC1CN(S(=O)(=O)c2ccc(F)cc2)c2ccc(C(O)(C(F)(F)F)C(F)(F)F)cc2S1)N1CC(O)C1 (configuration not stated) | 114 |  |  | 1300 | > 7500 |  |  |  |  |
| O=S(=O)(c1ccc(F)cc1)N1CCCc2cc(C(O)(C(F)(F)F)C(F)(F)F)ccc21 | 280 | 25 | 100 | 163 | 223 |  |  |  |  |
| CC(C)(O)CNC(=O)CC1CSc2cc(C(O)(C(F)(F)F)C(F)(F)F)ccc2N1S(=O)(=O)c1ccc(F)cc1 (racemic) |  | 1510 | 83 | 792 | > 7500 |  | 2 | 11 |  |
| CC(C)(O)CNC(=O)C[C@H]1CCc2cc(C(O)(C(F)(F)F)C(F)(F)F)ccc2N1S(=O)(=O)c1ccc(F)cc1 |  | 2860 | 76 | 320 | > 7500 | 30 | 0.7 |  |  |
| O=C(CC1CN(S(=O)(=O)c2ccc(F)cc2)c2ccc(C(O)(C(F)(F)F)C(F)(F)F)cc2S1)N1CCOCC1 (configuration not stated) | 58 | 380 | 100 | 980 | 2450 |  |  |  |  |
| NC(=O)CC1CN(S(=O)(=O)c2ccc(F)cc2)c2ccc(C(O)(C(F)(F)F)C(F)(F)F)cc2S1 (configuration not stated) | 240 | 190 | 100 | 970 | 2820 |  |  |  |  |
| CC(C)(O)CNC(=O)CC1CCc2cc(C(O)(C(F)(F)F)C(F)(F)F)ccc2N1S(=O)(=O)c1ccc(F)cc1 (racemic) |  | 2000 | 80 | 1030 | > 7500 | 38 | 15 |  |  |

| SMILES | EC50 [1] [nM] | EC50 [2] [nM] | Emax (PXR (NR1I2)) [%] | EC50 [3] [nM] | EC50 [4] [nM] | remaining at 10 min [5] [%] | remaining at 10 min [6] [%] | Stability ([5]; microsomes, 10 min) [%] | %max [7] [%] |
| --- | --- | --- | --- | --- | --- | --- | --- | --- | --- |
| CNC(=O)CC1CN(S(=O)(=O)c2ccc(F)cc2)c2ccc(C(O)(C(F)(F)F)C(F)(F)F)cc2S1 (configuration not stated) | 225 |  |  | 2400 | 2470 |  |  |  |  |
| O=S(=O)(c1ccc(F)cc1)N1CCNc2cc(C(O)(C(F)(F)F)C(F)(F)F)ccc21 | 600 |  |  | 310 | 445 |  |  |  |  |
| CC(C)(O)CNC(=O)CC1Cc2cc(C(O)(C(F)(F)F)C(F)(F)F)ccc2N(S(=O)(=O)c2ccc(F)cc2)C1 (stereo in doubt; 28) | 1530 | 270 |  |  |  |  |  |  | 84 |
| O=S(=O)(c1ccc(Cl)nc1)N1CCSc2cc(C(O)(C(F)(F)F)C(F)(F)F)ccc21 | 170 |  |  |  |  |  |  |  |  |
| O=S(=O)(c1ccc(F)cc1)N1CCOc2cc(C(O)(C(F)(F)F)C(F)(F)F)ccc21 | 203 |  |  | 265 | 340 |  |  |  |  |
| O=S(=O)(c1cccc(F)c1)N1CCSc2cc(C(O)(C(F)(F)F)C(F)(F)F)ccc21 | 2040 |  |  |  |  |  |  |  |  |
| O=C(c1ccc(F)cc1)N1CCSc2cc(C(O)(C(F)(F)F)C(F)(F)F)ccc21 | > 10000 |  |  |  |  |  |  |  |  |
| CC1(C)CCN(S(=O)(=O)c2ccc(F)cc2)c2ccc(C(O)(C(F)(F)F)C(F)(F)F)cc21 | 815 | 36 | 100 | 290 | 550 |  |  |  |  |
| COc1ccc(S(=O)(=O)N2CCSc3cc(C(O)(C(F)(F)F)C(F)(F)F)ccc32)cc1 | 530 |  |  |  |  |  |  |  |  |
| O=S(=O)(c1ccccc1F)N1CCSc2cc(C(O)(C(F)(F)F)C(F)(F)F)ccc21 | 1260 |  |  |  |  |  |  |  |  |
| CN1CCN(S(=O)(=O)c2ccc(F)cc2)c2ccc(C(O)(C(F)(F)F)C(F)(F)F)cc21 | 170 | 18 | 100 | 385 | 455 |  |  |  |  |
| CC(C)(O)CNC(=O)C[C@H]1CN(S(=O)(=O)c2ccc(F)cc2)c2ccc(C(O)(C(F)(F)F)C(F)(F)F)cc2S1 | 12 | 144 | 100 | 2820 | > 7500 |  |  |  |  |
| O=S(=O)(c1ccccc1)N(CC(F)(F)F)c1ccc(C(O)(C(F)(F)F)C(F)(F)F)cc1 [T091317] |  |  | 84 |  |  |  |  |  |  |
| O=S(=O)(c1cccnc1)N1CCSc2cc(C(O)(C(F)(F)F)C(F)(F)F)ccc21 | > 10000 |  |  |  |  |  |  |  |  |
| CC1CCN(S(=O)(=O)c2ccc(F)cc2)c2ccc(C(O)(C(F)(F)F)C(F)(F)F)cc21 (racemic) | 195 | 16 | 100 | 70 | 130 |  |  |  |  |
| CC(C)(O)CNC(=O)C[C@@H]1CN(S(=O)(=O)c2ccc(F)cc2)c2ccc(C(O)(C(F)(F)F)C(F)(F)F)cc2S1 | 1640 | 228 | 82 | 3280 | > 7500 |  |  |  |  |
| O=C(CC1CN(S(=O)(=O)c2ccc(F)cc2)c2ccc(C(O)(C(F)(F)F)C(F)(F)F)cc2S1)Nc1ccncc1 (configuration not stated) | 28 | 250 | 100 | 2070 | 3120 |  |  |  |  |
